Measured values as given in patent publication US12637413B2, “Fatty acid amide hydrolase (FAAH) cleavable prodrugs of thyromimetics and combination with peripherally restricted FAAH inhibitors” (Autobahn Therapeutics, Inc., priority 2021, dated 2026).

target: T1, recombinant human FAAH (rhFAAH) (Homo sapiens, UniProt O00519); assay: FAAH substrate evaluation (acid metabolite formation); format: biochemical; details: observed rate constant for acid metabolite formation; 0.5 ng/μL rhFAAH, 1 μM test compound, room temperature, 0-60 minutes
T1 construct: purchased Cayman Chemical (Ann Arbor, MI, USA)
T1 sequence (O00519 1-579): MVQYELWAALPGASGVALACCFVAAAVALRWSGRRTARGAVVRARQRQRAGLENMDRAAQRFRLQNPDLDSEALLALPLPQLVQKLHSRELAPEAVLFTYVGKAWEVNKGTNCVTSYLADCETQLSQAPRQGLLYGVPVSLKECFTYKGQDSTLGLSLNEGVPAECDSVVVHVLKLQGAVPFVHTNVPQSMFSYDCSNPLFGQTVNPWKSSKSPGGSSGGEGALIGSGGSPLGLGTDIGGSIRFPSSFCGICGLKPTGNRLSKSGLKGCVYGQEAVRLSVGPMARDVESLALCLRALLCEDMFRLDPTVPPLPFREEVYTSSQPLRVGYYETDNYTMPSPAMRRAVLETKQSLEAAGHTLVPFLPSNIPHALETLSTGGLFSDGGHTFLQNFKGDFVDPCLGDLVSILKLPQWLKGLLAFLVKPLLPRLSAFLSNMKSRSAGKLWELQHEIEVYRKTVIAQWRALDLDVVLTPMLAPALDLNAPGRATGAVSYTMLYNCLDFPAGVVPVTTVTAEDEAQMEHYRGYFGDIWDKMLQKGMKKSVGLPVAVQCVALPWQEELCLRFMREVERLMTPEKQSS
Procedure: Purified recombinant human FAAH (rhFAAH) was purchased from Cayman Chemical (Ann Arbor, MI, USA). The total volume for each incubation was 400 μL containing a final 0.5 ng/μL rhFAAH, 1 μM test compound, 1.25% ethanol or 1 μM PF-3845 (FAAH inhibitor), and 0.1% bovine serum albumin in Tris-EDTA buffer at pH 8.0). The positive control was LL-341001. The incubation was conducted at the room temperature. At 0, 5, 15, 30 and 60 minutes, an aliquot of 30 μL reaction mixtures was removed and mixed with 300 μL acetonitrile containing 5 ng/mL terfenadine and 10 ng/mL tolbutamide as internal standards to quench the reaction. The resulting mixture was centrifuged at 4000 rpm, 4° C. for 15 minutes, and 100 μL supernatant was ready for LC-MS/MS analysis to measure the formation of acid metabolite.
Acquity Ultra Performance LC system from Waters was used for sample analysis. The chromatography was performed on a reverse phase Kinetex 2.6 μm C18 column, 2.1×30 mm, 100 Å. The mobile phase A comprised of 0.1% formic acid in water and mobile phase B comprised of 0.1% formic acid in acetonitrile with a 2-min run time at the flow rate of 0.8 mL/min for the acid metabolite from positive control or a 1.5 min run time at the flow rate of 0.9 mL/min for the acid metabolite of test compounds. The mass spectrometer (API-5500 and API Q Trap 4000 Applied Biosystems/MDS SCIEX Instruments, Framingham, MA, USA) was operated under ESI positive or negative ion MRM mode.
The formation of acid metabolite was monitored and quantified using one calibration point of 1 μM. The observed rate constant (ke) for the acid metabolite formation was calculated by plotting the metabolite concentration versus time of incubation with the slope being ke and is shown in Table 1.

| Structure (SMILES) | ke |
| --- | --- |
| CC(C)c1cc(Cc2c(Cl)cc(OCC(=O)NC3CCC3)cc2Cl)ccc1O [Compound 127, N-cyclobutyl-2-(3,5-dichloro-4-(4-hydroxy-3-isopropylbenzyl)phenoxy)acetamide] | B (ke is less than 0.1 and more than 0) |
| CC(C)c1cc(Cc2c(Cl)cc(OCC(=O)NCC#N)cc2Cl)ccc1O [Compound 29] | A (ke is more than or equal to 0.1) |
| COc1ccc(NC(=O)COc2cc(Cl)c(Cc3ccc(O)c(C(C)C)c3)c(Cl)c2)nn1 [Compound 113, 2-(3,5-dichloro-4-(4-hydroxy-3-isopropylbenzyl)phenoxy)-N-(6-methoxypyridazin-3-yl)acetamide] | A (ke is more than or equal to 0.1) |
| C#CCNC(=O)COc1cc(Cl)c(Cc2ccc(O)c(C(C)C)c2)c(Cl)c1 [Compound 5] | A (ke is more than or equal to 0.1) |
| CC(C)c1cc(Cc2c(Cl)cc(OCC(=O)NN)cc2Cl)ccc1O [Compound 27] | A (ke is more than or equal to 0.1) |
| CC(C)c1cc(Cc2c(Cl)cc(OCC(=O)NO)cc2Cl)ccc1O [Compound 26] | A (ke is more than or equal to 0.1) |
| CC(C)c1cc(Cc2c(Cl)cc(OCC(=O)N[C@@H](C)CO)cc2Cl)ccc1O [Compound 10] | A (ke is more than or equal to 0.1) |
| CNC(=O)COc1cc(Cl)c(Cc2ccc(O)c(C(C)C)c2F)c(Cl)c1F [Compound 39] | B (ke is less than 0.1 and more than 0) |
| C=CCN(C)C(=O)COc1cc(Cl)c(Cc2ccc(O)c(C(C)C)c2)c(Cl)c1 [Compound 128, N-allyl-2-(3,5-dichloro-4-(4-hydroxy-3-isopropylbenzyl)phenoxy)-N-methylacetamide] | B (ke is less than 0.1 and more than 0) |
| CC(C)c1cc(Cc2c(Cl)cc(OCC(=O)N3CCOCC3)cc2Cl)ccc1O [Compound 133, 2-(3,5-dichloro-4-(4-hydroxy-3-isopropylbenzyl)phenoxy)-1-morpholinoethan-1-one] | A (ke is more than or equal to 0.1) |
| CC(C)c1cc(Cc2c(Cl)cc(OCC(=O)NC[C@H](C)O)cc2Cl)ccc1O [Compound 8] | B (ke is less than 0.1 and more than 0) |
| Cc1noc(NC(=O)COc2cc(Cl)c(Cc3ccc(O)c(C(C)C)c3)c(Cl)c2)c1C [Compound 103, 2-(3,5-dichloro-4-(4-hydroxy-3-isopropylbenzyl)phenoxy)-N-(3,4-dimethylisoxazol-5-yl)acetamide] | A (ke is more than or equal to 0.1) |

Next, values leading:

| ke | Structure (SMILES) |
| --- | --- |
| B (ke is less than 0.1 and more than 0) | CC(C)c1cc(Cc2c(Cl)cc(OCC(=O)N(C)C(C)C)cc2Cl)ccc1O [Compound 122, 2-(3,5-dichloro-4-(4-hydroxy-3-isopropylbenzyl)phenoxy)-N-isopropyl-N-methylacetamide] |
| B (ke is less than 0.1 and more than 0) | CCN(C)C(=O)COc1cc(Cl)c(Cc2ccc(O)c(C(C)C)c2)c(Cl)c1 [Compound 130, 2-(3,5-dichloro-4-(4-hydroxy-3-isopropylbenzyl)phenoxy)-N-ethyl-N-methylacetamide] |
| A (ke is more than or equal to 0.1) | CC(C)c1cc(Cc2c(Cl)cc(OCC(=O)Nc3cccc(O)c3)cc2Cl)ccc1O [Compound 21] |
| B (ke is less than 0.1 and more than 0) | CC(C)c1cc(Cc2c(Cl)cc(OCC(=O)NCCc3ccccc3)cc2Cl)ccc1O [Compound 23] |
| B (ke is less than 0.1 and more than 0) | CC(C)c1cc(Cc2c(Cl)cc(OCC(=O)NC[C@@H](C)O)cc2Cl)ccc1O [Compound 7] |
| C (ke is 0) | CC(C)CNC(=O)COc1cc(Cl)c(Cc2ccc(O)c(C(C)C)c2)c(Cl)c1 [Compound 121, 2-(3,5-dichloro-4-(4-hydroxy-3-isopropylbenzyl)phenoxy)-N-isobutylacetamide] |
| A (ke is more than or equal to 0.1) | CC(C)c1cc(Cc2c(Cl)cc(OCC(=O)NC3COC3)cc2Cl)ccc1O [Compound 18] |
